Assay results published in US10759787B2, “Benzofuran derivative, preparation method thereof and use thereof in medicine” (Jiangsu Hengrui Medicine Co., Ltd., priority 2015, dated 2020).

What was measured:
WSU-DLCL2 cells = assay: In vitro anti-tumor cell growth assay (CellTiter-Glo), WSU-DLCL2; type: cell-based; conditions: Homo sapiens, WSUDLCL2, 120 h; WSU-DLCL2 cells (Y641F mutant), 5 days; read-out: IC50 for inhibiting the growth activity of tumor cells (WSU-DLCL2) in vitro
Protocol: (§1) Test Example 2. Assay for Determining In Vitro Anti-Tumor Cell Growth Activity of the Example Compounds of the Present Invention
(§2) This method was used to determinate the inhibitory effect of the compounds of the present invention on the growth activity of tumor cells (Pfeiffer or WSU-DLCL2) in vitro. Pfeiffer cells carry A677G mutant, and WSU-DLCL2 cells carry Y641F mutant.
(§3) The lymphoma suspension cell line (Pfeiffer or WSU-DLCL2) was cultured in a RPMI-1640 medium containing 10% inactivated Fetal Bovine Serum, 100 U/mL penicillin, and 100 μg/mL streptomycin, and incubated in an incubator with 5% carbon dioxide at 37° C. under a saturated humidity condition, and passaged every 3-4 days.
(§4) A cell sudpension was prepared with a fresh cell medium, added to a 96-well cell culture plate at 8000 cells/well (Pfeiffer) or 2000 cells/well (WSU-DLCL2), and incubated in 5% carbon dioxide at 37° C. incubator overnight. On the day of the experiment, the EZH2 test compounds (final concentration: 20000, 2000, 200, 20, 2, 0.2 nM) were added into the experimental wells for 3 parallel wells per group. A control well with the medium alone but without cells was set up to obtain the background luminescent value. The cell culture plate was incubated in an incubator with 5% carbon dioxide at 37° C. for 5 days.
(§5) After the compounds were applied to the cells for 5 days, the cell culture plate was placed at room temperature for 30 minutes, then a CellTiter-Glo reagent equal to the volume of cell culture medium was added to each well. The contents were mixed on a shaker for 10 minutes, and the […] signal values were recorded. The cell growth inhibition rate was calculated, and the formula was: cell growth inhibiton rate=[(negative control control−experimental group)/(negative control group−background luminescent value)]×100%. The IC50 values (half inhibition rate IC50, i.e., a drug concentration that is required for 50% cell growth inhibition rate) were calculated by software from the cell growth inhibiton rate and the corresponding concentration.

EZH2-Y641F = EZH2-Y641F (Homo sapiens (Human), UniProt Q15910, Y641F); assay: EZH2-Y641F mutant enzyme activity assay (HTRF); type: biochemical; conditions: read-out: IC50 for inhibiting the activity of enzyme EZH2-Y641F
Protocol: (§6) Histone H3 biotin labeling and S-adenosyl methionine were respectively diluted to 50 nM and 50 μM with a kinase buffer, then added to a 384-well plate at 4 μl/well. The test compound was diluted with a kinase buffer (it was diluted from the highest concentration 30 μM in 10 fold concentration gradient to 7 concentration points), then added to the 384-well microtiter plate at 4 μl/well. The plate was incubated at room temperature for 2 hours. Histone H3K27 Me3 monoclonal antibody and Streptavidin-XL665 were diluted to 30 nM and 500 nM by HTRF detection buffer, then added to the 384-well microplate at 10 µl/well and incubated for 1 hour. A well without an EZH2 enzyme and a compound was used as a negative control, and a well with an EZH2 enzyme but without a compound was used as a positive control. […] The compound logarithm concentration vs the inhibition percentage relative to the positive control well was plotted using GraphPad Prism, then the IC50 values were calculated.

EZH2-A677G = EZH2-A677G (Homo sapiens (Human), UniProt Q15910, A677G); assay: EZH2-A677G mutant enzyme activity assay (HTRF); type: biochemical; conditions: read-out: IC50 for inhibiting the activity of enzyme EZH2-A677G
Protocol: as §6

Pfeiffer cells = assay: In vitro anti-tumor cell growth assay (CellTiter-Glo), Pfeiffer; type: cell-based; conditions: Homo sapiens, 120 h; Pfeiffer cells (A677G mutant), 5 days; read-out: IC50 for inhibiting the growth activity of tumor cells (Pfeiffer) in vitro
Protocol: as §1, §2, §3, §4, §5

[1] = Pharmacokinetics assay in SD rats after intragastrical administration; type: in vivo; conditions: both sexes, Sprague-Dawley, rat, plasma, po, 5 mg/kg
Protocol: Test Example 3. Pharmacokinetics Assay of the Compounds of Examples 1, 2, 3 and 9 of the Present Invention
SD rats were used as test animals. The drug concentration in plasma at different time points was determined by LC/MS/MS after intragastrical administration of the compounds of Examples 1, 2, 3 and 9 to the rats. The pharmacokinetic behavior of the compounds of the present invention was studied and evaluated in rats.
16 healthy adult Sprague-Dawley (SD) rats, half male and half female, were purchased from SINO-BRITSH SIPPR/BK LAB. ANIMAL LTD., CO, with Certificate No.: SCXK (Shanghai) 2008-0016.
The appropriate amount of each compound was weighed, and added with 0.5% CMC-Na (containing 1% Tween 80) to prepare a 1.0 mg/mL suspension by grinding.
After an overnight fast, 16 SD rats were divided into 4 groups equally, half male and half female, and administered intragastrically the test compounds at an administration volume of 5 mL/kg.
Blood (0.2 mL) was taken from the orbital sinus before administration and at 0.5, 1.0, 2.0, 4.0, 6.0, 8.0, 11.0, and 24.0 hours after administration. The samples were stored in heparinized tubes, and centrifuged for 10 minutes at 3,500 rpm to separate the blood plasma. The plasma samples were stored at −20° C.
The plasma concentration of the test compounds in rat plasma after intragastric administration was determined by LC-MS/MS.
Pharmacokinetic parameters of the compounds of Examples 1, 2, 3 and 9 of the present invention are shown below: […]

EZH2-Y641F, sequence (Q15910 whole entry Y641F): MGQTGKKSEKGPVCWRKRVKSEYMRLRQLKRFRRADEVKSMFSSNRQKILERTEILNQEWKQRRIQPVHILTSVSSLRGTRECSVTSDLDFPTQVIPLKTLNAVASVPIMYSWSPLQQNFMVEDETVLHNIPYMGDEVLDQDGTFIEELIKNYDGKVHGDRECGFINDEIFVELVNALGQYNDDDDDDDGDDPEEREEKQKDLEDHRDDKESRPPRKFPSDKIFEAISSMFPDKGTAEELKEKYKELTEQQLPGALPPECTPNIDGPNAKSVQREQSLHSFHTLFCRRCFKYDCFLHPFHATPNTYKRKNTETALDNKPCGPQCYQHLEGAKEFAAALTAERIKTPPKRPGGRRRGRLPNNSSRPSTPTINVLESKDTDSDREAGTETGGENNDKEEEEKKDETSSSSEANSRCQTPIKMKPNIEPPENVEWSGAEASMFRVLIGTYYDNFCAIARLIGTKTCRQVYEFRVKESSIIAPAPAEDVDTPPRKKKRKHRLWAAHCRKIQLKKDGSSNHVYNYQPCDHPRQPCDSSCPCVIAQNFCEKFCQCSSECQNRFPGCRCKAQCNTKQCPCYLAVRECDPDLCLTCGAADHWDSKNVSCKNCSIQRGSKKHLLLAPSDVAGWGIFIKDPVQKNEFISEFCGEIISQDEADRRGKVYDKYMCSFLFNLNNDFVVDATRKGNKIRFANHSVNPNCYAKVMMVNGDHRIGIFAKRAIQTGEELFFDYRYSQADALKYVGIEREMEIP
EZH2-Y641F, sequence (O75530 whole entry partner): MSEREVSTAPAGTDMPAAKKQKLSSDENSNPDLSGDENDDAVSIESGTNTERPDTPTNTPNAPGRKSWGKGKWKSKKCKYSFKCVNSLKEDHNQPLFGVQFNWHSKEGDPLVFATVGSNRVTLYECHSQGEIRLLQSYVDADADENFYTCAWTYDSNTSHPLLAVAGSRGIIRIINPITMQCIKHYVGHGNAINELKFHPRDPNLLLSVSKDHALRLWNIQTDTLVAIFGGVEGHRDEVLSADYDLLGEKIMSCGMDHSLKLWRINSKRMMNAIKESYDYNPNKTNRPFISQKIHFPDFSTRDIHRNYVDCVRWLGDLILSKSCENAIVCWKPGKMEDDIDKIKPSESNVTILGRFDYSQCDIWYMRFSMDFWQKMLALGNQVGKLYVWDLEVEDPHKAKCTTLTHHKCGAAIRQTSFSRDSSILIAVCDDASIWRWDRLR
EZH2-Y641F, sequence (Q15022 whole entry partner): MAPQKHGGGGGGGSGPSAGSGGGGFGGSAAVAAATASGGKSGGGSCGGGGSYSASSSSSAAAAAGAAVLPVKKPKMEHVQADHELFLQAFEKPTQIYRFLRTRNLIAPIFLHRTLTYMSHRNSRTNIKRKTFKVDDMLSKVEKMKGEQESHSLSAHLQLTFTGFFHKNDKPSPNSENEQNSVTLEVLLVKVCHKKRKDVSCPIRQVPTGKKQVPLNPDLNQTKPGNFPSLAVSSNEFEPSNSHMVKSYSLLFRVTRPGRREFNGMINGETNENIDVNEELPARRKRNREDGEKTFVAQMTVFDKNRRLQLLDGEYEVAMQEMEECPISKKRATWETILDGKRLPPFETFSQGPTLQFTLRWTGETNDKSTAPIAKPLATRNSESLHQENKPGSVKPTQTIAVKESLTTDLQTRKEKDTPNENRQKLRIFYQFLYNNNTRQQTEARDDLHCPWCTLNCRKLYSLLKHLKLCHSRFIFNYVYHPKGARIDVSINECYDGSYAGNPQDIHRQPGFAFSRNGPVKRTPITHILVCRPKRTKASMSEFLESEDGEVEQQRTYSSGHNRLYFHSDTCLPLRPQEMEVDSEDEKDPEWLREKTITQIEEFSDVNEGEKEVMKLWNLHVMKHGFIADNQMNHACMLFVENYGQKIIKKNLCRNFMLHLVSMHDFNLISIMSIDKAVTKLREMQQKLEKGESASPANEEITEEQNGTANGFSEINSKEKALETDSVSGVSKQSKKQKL
EZH2-Y641F, sequence (Q09028 whole entry partner): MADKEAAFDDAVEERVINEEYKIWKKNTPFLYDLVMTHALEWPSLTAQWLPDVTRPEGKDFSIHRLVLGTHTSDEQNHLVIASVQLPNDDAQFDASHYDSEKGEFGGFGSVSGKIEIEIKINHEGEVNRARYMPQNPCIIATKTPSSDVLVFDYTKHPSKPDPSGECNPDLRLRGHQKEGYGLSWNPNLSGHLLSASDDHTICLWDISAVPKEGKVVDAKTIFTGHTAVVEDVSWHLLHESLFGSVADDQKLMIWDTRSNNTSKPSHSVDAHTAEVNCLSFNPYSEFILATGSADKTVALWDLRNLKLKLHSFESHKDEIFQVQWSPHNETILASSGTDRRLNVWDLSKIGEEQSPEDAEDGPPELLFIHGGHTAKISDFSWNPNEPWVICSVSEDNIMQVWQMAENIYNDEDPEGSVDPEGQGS
EZH2-Y641F, sequence (Q6ZN18 whole entry partner): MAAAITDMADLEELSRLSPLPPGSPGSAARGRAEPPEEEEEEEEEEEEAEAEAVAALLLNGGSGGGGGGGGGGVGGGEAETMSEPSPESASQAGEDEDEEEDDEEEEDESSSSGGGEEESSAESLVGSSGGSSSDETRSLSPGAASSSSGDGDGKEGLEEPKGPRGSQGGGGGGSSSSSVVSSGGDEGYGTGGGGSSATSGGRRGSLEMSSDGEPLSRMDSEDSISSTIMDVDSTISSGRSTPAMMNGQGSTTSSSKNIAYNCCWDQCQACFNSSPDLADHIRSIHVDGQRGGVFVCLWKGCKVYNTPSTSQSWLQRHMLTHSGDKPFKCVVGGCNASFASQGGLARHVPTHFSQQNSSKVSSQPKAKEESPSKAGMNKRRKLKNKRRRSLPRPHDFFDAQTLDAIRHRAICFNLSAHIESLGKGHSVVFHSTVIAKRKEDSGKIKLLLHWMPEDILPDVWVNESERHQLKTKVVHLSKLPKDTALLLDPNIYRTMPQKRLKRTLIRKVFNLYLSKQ
EZH2-A677G, sequence (Q15910 whole entry A677G): as the sequence (Q15910 whole entry Y641F) above, with F641Y, A677G counted along it
EZH2-A677G, sequence (O75530 whole entry partner): as the sequence (O75530 whole entry partner) above
EZH2-A677G, sequence (Q15022 whole entry partner): as the sequence (Q15022 whole entry partner) above
EZH2-A677G, sequence (Q09028 whole entry partner): as the sequence (Q09028 whole entry partner) above
EZH2-A677G, sequence (Q6ZN18 whole entry partner): as the sequence (Q6ZN18 whole entry partner) above

- IC50 (WSU-DLCL2 cells): 55 nM
- IC50 (EZH2-Y641F): 4 nM
- IC50 (EZH2-A677G): 5.7 nM
- IC50 (Pfeiffer cells): 7 nM
- Vd/F ([1]; read-out: Apparent Distribution Volume Vz/F): 35.1 ± 37.1 L/kg
- AUC ([1]; read-out: Area Under Curve AUC): 274 ± 180 ng·h/mL
- CL/F ([1]; read-out: Clearance CL/F): 562 ± 592 mL/min/kg
- half-life ([1]; read-out: Half-Life t1/2 (converted)): 0.719 ± 0.15 h
- MRT ([1]; read-out: Mean Residence Time MRT): 3.48 ± 0.107 h
- Cmax ([1]; read-out: Plasma Conc. Cmax): 79.1 ± 50.7 ng/mL
Compound: CCc1c(N(CC)C2CCOCC2)cc2oc(C3CCN(C(C)C)CC3)cc2c1C(=O)NCc1c(C)cc(C)[nH]c1=O [Example 9, N-((4,6-Dimethyl-2-oxo-1,2-dihydropyridin-3-yl)methyl)-5-ethyl-6-(ethyl(tetrahydro-2H-pyran-4-yl)amino)-2-(1-isopropylpiperidin-4-yl)benzofuran-4-carboxamide]
